# Laboratory results as given in US7708989B2, “Methods of treating vascular diseases characterized by nitric oxide insufficiency” (NitroMed, Inc., priority 1999, dated 2010).
# Entries after “also recorded” stand apart in the source; their conditions may differ.
# Key:
# [1] = cited from earlier work
# forearm microvessels [2] = test: Forearm blood flow responses to intra-arterial infusions by venous occlusion plethysmography in white and black hypertensive patients; format: in vivo, human; conditions: intra-arterial infusion
# forearm microvessels [3] = test: Forearm blood flow responses by venous occlusion plethysmography in normotensive white and black patients; format: in vivo, human; conditions: 46 normotensive white and black patients matched for age and gender
# Description: FIGS. 3A and 3B show forearm blood flow responses to nitroprusside (FIG. 3A) and methacholine (FIG. 3B) that were assessed by venous occlusion plethysmography in 25 white and 21 black patients without hypertension.
# To investigate the issue of whether NO deficiency is a primary or secondary phenomenon in hypertensive black patients, 46 normotensive white and black patients who were matched for age and gender were compared. […] These findings are consistent with recently published results by other investigators (Lang et al, N EngI J Med, 333:155-160 (1995); Cardillo et al, Hypertension 31:1235-1239 (1998)).
# forearm microvessels [4] = test: Forearm microvascular vasodilator responses in salt-sensitive versus salt-resistant normotensive black patients; format: in vivo, human
# Description: To explore the relation between salt-sensitivity and endothelium-derived NO action in black patients prior to the development of hypertension, the blood pressure response to salt-loading and salt-deprivation using an established inpatient protocol (Weinberger et al, Hypertension, 8:II-127-II-134 (1986)) in a group of normotensive black patients was assessed. Briefly, blood pressure was continuously monitored non-invasively during a salt load (sodium 458 mEq over 24 hours) and during a period of salt depletion (furosemide treatment and sodium intake 10 mEq over 24 hours). Patients were considered to be salt-sensitive if mean blood pressure was at least 10 mm Hg higher during the salt loading period (Weinberger et al, Hypertension, 8:II-127-II-134 (1986)).
# conduit arteries = test: Conduit vessel function by brachial ultrasound technique (nitroglycerin-mediated dilation); format: in vivo, human; conditions: for NTG-response (%): mean ± SD
# Description: The effects of hypertension and race on conduit vessel function were examined using a well-established brachial ultrasound technique (Vita et al, Lanzer & Lipton, Eds., Diagnostics of Vascular Diseases: Principles and Technology. Berlin:Springer-Verlag, pp.249-259 (1996)) in 370 patients (178 black, 192 white). […] Further, systolic blood pressure was inversely correlated with flow-mediated dilation (r=−0.30, P<0.001) and nitroglycerin-mediated dilation (r=−0.33, P<0.001). Diastolic pressure correlated to a similar extent with vascular function. By multiple linear regression analysis, vessel size and systolic blood pressure were the only independent predictors of flow-mediated dilation in this sizable group of patients.
smiles,measurement,setting,value
"O=[N+]([O-])O[C@H]1CO[C@H]2[C@@H]1OC[C@H]2O[N+](=O)[O-] [isosorbide dinitrate, 1,4,3,6-dianhydro-D-glucitol-2,5-dinitrate]",solubility in organic solvents,"[1]; organic solvents such as ethanol, ether and chloroform",freely soluble
same,solubility in water,[1]; water,sparingly soluble
CC(=O)OC(C)C[N+](C)(C)C (stereo not shown) [methacholine],"vasodilator (forearm blood flow) response, black compared to white hypertensive patients",forearm microvessels [2]; 36 white and black hypertensive patients,impaired; also recorded: markedly worse
same,"dilator response, hypertensive patients compared to age-matched normotensive controls",forearm microvessels [2]; hypertensive versus normotensive controls,significantly reduced
same,"vasodilator response, black compared to white normotensive patients",forearm microvessels [3],no racial difference; also recorded: not significantly different
same,"vasodilator response, salt-sensitive compared to salt-resistant patients","forearm microvessels [4]; normotensive black patients, repeated measures ANOVA",trends for impaired vasodilator responses
COc1ccc(CCN(C)CCCC(C#N)(c2ccc(OC)c(OC)c2)C(C)C)cc1OC (stereo not shown) [verapamil],"vasodilator response, salt-sensitive compared to salt-resistant patients","forearm microvessels [4]; human, in vivo",equivalent
O=[N+]([O-])OCC(CO[N+](=O)[O-])O[N+](=O)[O-] [nitroglycerin],nitroglycerin-mediated dilation according to race,"conduit arteries; 370 patients (178 black, 192 white)",no significant differences
same,NTG-response (%),"conduit arteries; Black Patients, Hypertensive, p < 0.001 compared to race matched normotensives",16.4 ± 7.1 %
same,NTG-response (%),"conduit arteries; Black Patients, Normotensive",20.6 ± 8.4%
same,NTG-response (%),"conduit arteries; White Patients, Hypertensive, p < 0.001 compared to race matched normotensives",14.6 ± 6.2 %
same,NTG-response (%),"conduit arteries; White Patients, Normotensive",18.1 ± 8.1%
same,effect of hypertension on nitroglycerin-mediated dilation,conduit arteries; hypertensive versus normotensive patients,highly significant reduction
